The IC50 is the concentration that inhibits the measured activity by half. One may read the MIC as the lowest concentration that inhibits growth of the organism. One may read the EC50 as the concentration at which the effect is half-maximal.

In series [1] the test system is C. albicans GDH2346. Put plainly: Candida IC50, vegetative cells, by OD600 and fluorescence. The class given is cell-based. The settings on record: Candida albicans, GDH2346. An outline of the steps:
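Vegetative C. albicans GDH2346 in RPMI/MOPS pH 6.3 with FDGlu, an exoglucanase substrate giving fluorescent growth signal. OD600 and fluorescence read at 24 and 48 h; IC50 from the average of all four reads.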

Series [2] deals with C. albicans GDH2346. The series is described as follows: Candida MIC, CLSI M27-A3. The note with it: Candida albicans, GDH2346. The class given is cell-based. The protocol: (§1) Candida MIC assays were determined in accordance with CLSI guidelines M27-A3 using a clinically isolated C. albicans strain, GDH2346.50% human serum was added to determine activity in the presence of serum.

Series [3] concerns C. dubliniensis (NCPF3949). The series is described as follows: Yeast MIC. The class given is cell-based. The settings on record: for MIC: Candida dubliniensis, NCPF3949. The protocol: as §1
(§2) CLSI conditions Bacteria strains: clinical isolates; yeast strains: C. dubliniensis (NCPF3949), C. glabrata (ATCC 90030), C. krusei (ATCC 6258), C. parapsilosis (ATCC 22019), and C. tropicalis (ATCC 750). Cytotoxicity (EC50) was determined against mouse 3T3 fibroblasts, human transformed liver HepG2 cells, and human oral keratinocyte cell line, OKF6/TERT using an MTS viability assay.

Series [4] concerns C. glabrata (ATCC 90030). Put plainly: Yeast MIC. The class given is cell-based. The settings on record: for MIC: Nakaseomyces glabratus, ATCC90030. Here is the method: as §1, §2
Series [5] relates to C. krusei (ATCC 6258). Put plainly: Yeast MIC. The class given is cell-based. The note with it: Pichia kudriavzevii, ATCC6258. The protocol:
as §1, §2

The test system of series [6] is C. parapsilosis (ATCC 22019). Put plainly: Yeast MIC. The class given is cell-based. The settings on record: Lodderomyces parapsilosis, ATCC22019. The protocol:
as §1, §2

For series [7], the system named is C. tropicalis (ATCC 750). Put plainly: Yeast MIC. The class given is cell-based. The note with it: Candida tropicalis, ATCC750. Here is the method: as §1, §2
Series [8] deals with C. albicans GDH2346. Put plainly: Time kill. The settings on record: FIGS. 6A and 6B. The class given is cell-based. The protocol:
Time kills were performed in the same manner as IC50s. At each time point yeast were removed, diluted as necessary and plated on YPD agar to determine viable CFUs.

Series [9] concerns C. albicans. The series is described as follows: Disseminated candidiasis model, survival study. The settings on record: neutropenic mice. The class given is in vivo. Here is the method: Mice were made neutropenic with i.p. injections of cyclophosphamide (150 mg/kg in 10 mL/kg) at 4 and 1 day before inoculation. Each animal was then inoculated by injecting 0.1 mL of inoculum of C. albicans in a tail vein. At 2 hours post-infection, the standard was administered orally and the test compound by IV. Compounds were dosed once daily for 4 days.
The kidneys were collected from four mice in Group 1 at 2 hours after infection, from four mice in Groups 2-5 at five days after infection, and from all surviving mice in the infected treatment groups. An aliquot of sterile PBS were added to each tube and the contents homogenized with a tissue homogenizer. Serial dilutions of the tissue homogenates were conducted, 0.1 mL aliquots were spread on SDA plates and the plates incubated at 35° C. overnight. The CFU/kidneys were determined from colony counts.
Survival data was analyzed using the log-rank (Mantel-Cox) test and one-way ANOVA with Tukey's Multiple Comparisons Test was performed on the yeast density and change in body weight data (GraphPad InStat version 5.04).

Series [10] can be described thus: Cytotoxicity, MTS viability assay. The class given is cell-based, human. The note with it: Table 6. In short, it runs like this:
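Cytotoxicity in mouse 3T3 fibroblasts and human HepG2 liver cells measured by MTS viability assay. Values reported as EC50.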

The mark [11] stands for this setting: vegetative cells, read-out: IC50 Candida, Vegetative.
[12] abbreviates: vegetative cultures, read-out: Anti-C. albicans GDH2346 Vegetative (IC50).
Where [13] appears, read: Table 5, read-out: MIC C. albicans.
Setting [14] is: Table 5, read-out: MIC C. dubliniensis.
The mark [15] stands for this setting: Table 5, read-out: MIC C. glabrata.
Setting [16] is: 50% human serum, read-out: MIC C. albicans GDH2346 + 50% HS.
The mark [17] stands for this setting: without serum, read-out: MIC C. albicans GDH2346.
[18] abbreviates: 50% human serum, read-out: MIC C. dubliniensis + 50% HS.
Where [19] appears, read: without serum, read-out: MIC C. dubliniensis.
Setting [20] is: 50% human serum, read-out: MIC C. glabrata + 50% HS.
The mark [21] stands for this setting: without serum, read-out: MIC C. glabrata.

≈ marks a conversion by molar mass, not a printed value. Like-named read-outs stand apart in the source and are kept apart here.

With `NCCSc1cc(SCCN)c(C(F)(F)F)cc1NC(=O)c1cc(C(=O)Nc2cc(C(F)(F)F)c(SCCN)cc2SCCN)ncn1` [Compound 100], the IC50 in series [1] (setting [11]) and in series [1] (setting [12]) was 4.93 µg/mL (≈ 6.53 µM) throughout. Further, the minimal inhibitory concentration (MIC) is 4 to 8 µg/mL (≈ 5.3 to 10.6 µM) in series [2] (setting [13]); 8 µg/mL (≈ 10.6 µM) in series [3] (setting [14]); 16 µg/mL (≈ 21.2 µM) in series [4] (setting [15]); 8 µg/mL (≈ 10.6 µM) in [5]; 8 µg/mL (≈ 10.6 µM) in series [6]; 4 µg/mL (≈ 5.3 µM) in [7]. In addition, the killing kinetics result in series [8] is given as “cidal activity with rapid killing kinetics”.

Take `NCCCOc1cc(OCCCN)cc(-c2ccc3c(c2)c2cc(-c4cc(OCCCN)cc(OCCCN)c4)ccc2n3CCCN)c1` [Compound 135]: the IC50 in series [1] (setting [11]) and in [1] (setting [12]) was 1.44 µg/mL (≈ 2.15 µM) throughout. The MIC stood at 2 µg/mL in series [2] (setting [16]); 4 µg/mL (≈ 5.98 µM) in [2] (setting [13]); 4 µg/mL (≈ 5.98 µM) in series [2] (setting [17]); 1 µg/mL in [3] (setting [18]); 4 µg/mL (≈ 5.98 µM) in series [3] (setting [19]); 2 µg/mL in series [4] (setting [20]). Further, the minimal inhibitory concentration (MIC) in [4] (setting [21]) was 2 µg/mL (≈ 2.99 µM); in series [5], 16 µg/mL (≈ 23.9 µM); in series [6], 2 µg/mL (≈ 2.99 µM); in series [7], 2 to 4 µg/mL (≈ 2.99 to 5.98 µM). Moreover, in [3] (Table 5), the “MIC C. dubliniensis” value came to 4 µg/mL (≈ 5.98 µM). For the same compound, in series [4] (Table 5), the “MIC C. glabrata” value came out at 2 µg/mL (≈ 2.99 µM). Also, the killing kinetics entry in series [8] was “cidal activity with rapid killing kinetics”. In addition, the “survival over a 14-day period, p between Fluconazole and compound” value in series [9] (10 mg/kg IV once daily for 4 days) and in series [9] (15 mg/kg IV once daily for 4 days) was below 0.01 throughout.

As to `N=C(N)N1CCN(c2ccc(-c3cc(-c4ccc(N5CCN(C(=N)N)CC5)cc4)ncn3)cc2)CC1` [Compound 136], the IC50 in series [1] (Table 6, read-out: IC50 C. albicans) is 1.4 µg/mL (≈ 2.89 µM); in series [1] (setting [11]), 4.24 µg/mL (≈ 8.75 µM); in series [1] (setting [12]), 4.24 µg/mL (≈ 8.75 µM). Besides, the concentration giving a half-maximal response (EC50) in series [10] (human, HepG2 cells (transformed liver), read-out: Cytotoxicity EC50 Human HepG2) is 453 µM; in [10] (mouse, 3T3 fibroblasts, read-out: Cytotoxicity EC50 Mouse 3T3), 311 µM. Moreover, the MIC in series [2] (setting [16]) was 2 µg/mL; in series [2] (setting [13]) it was 4 µg/mL (≈ 8.25 µM); in [2] (setting [17]), 4 µg/mL (≈ 8.25 µM); in series [3] (setting [18]), 2 µg/mL; in series [3] (setting [19]), 8 µg/mL (≈ 16.5 µM); in series [4] (setting [20]), 1 µg/mL. Moreover, the MIC is 4 µg/mL (≈ 8.25 µM) in series [4] (setting [21]), 32 µg/mL (≈ 66 µM) in series [5], 4 to 8 µg/mL (≈ 8.25 to 16.5 µM) in series [6] and 4 to 8 µg/mL (≈ 8.25 to 16.5 µM) in [7]. Besides, the “MIC C. dubliniensis” value in series [3] (Table 5) is 8 µg/mL (≈ 16.5 µM). Moreover, the “MIC C. glabrata” value in [4] (Table 5) came to 4 µg/mL (≈ 8.25 µM).

For `NCCCOc1cc(-c2cn(-c3cc(OCCCN)cc(OCCCN)c3)nn2)cc(-c2cn(-c3cc(OCCCN)cc(OCCCN)c3)nn2)c1` [Compound 137], the IC50 in [1] (setting [11]) stood at 1.89 µg/mL (≈ 2.59 µM). Also, the minimum inhibitory concentration (MIC) is 8 µg/mL (≈ 11 µM) in [2] (setting [13]); 8 to 16 µg/mL (≈ 11 to 21.9 µM) in series [3] (setting [14]); 8 µg/mL (≈ 11 µM) in series [4] (setting [15]); 8 µg/mL (≈ 11 µM) in series [5]; 4 to 8 µg/mL (≈ 5.48 to 11 µM) in series [6]; 4 µg/mL (≈ 5.48 µM) in [7].

Values taken from US8895561B2, “Compounds and methods for treating candidiasis and aspergillus infections” (Cellceutix Corporation, priority 2012, dated 2014).
